The target in data set [1] is Cytochrome P450 2C9 (Homo sapiens, UniProt P11712). Kind of data set: Inhibition of recombinant CYP2C9. In kind it is ADME.
For data set [2], the target named is CYP2C9 (Homo sapiens, UniProt P11712). Kind of data set: Inhibition of CYP2C9 in human liver microsomes at 3.3 uM. Type of data set: ADME, Microsome.
Data set [3] deals with T1, Cytochrome P450 2C19 (Homo sapiens, UniProt P33261). Nature of the data set: Inhibition of CYP2C19 in human liver microsomes. In kind it is ADME, Microsome.
Data set [4] deals with Transient receptor potential cation channel subfamily M member 8 (Homo sapiens, UniProt Q7Z2W7). Nature of the data set: Antagonist activity at human TRPM8 by calcium flux assay. Type of data set: functional. (In general: A change in cytosolic calcium serves as a functional read-out for many receptors and channels.)
Data set [5] deals with Rattus norvegicus. Kind of data set: Antiallodynic activity against chronic constriction injury cold allodynia in rat assessed as inhibition of cold hypersensitivity at 10 mg/kg, po measured after 4 hrs post dosing. In kind it is functional, organism-based. Set-up: dose 10 mg/kg.
Data set [6] is described as follows: Clearance in rat at 10 mg/kg. In kind it is ADME, organism-based. Set-up: dose 10 mg/kg. Conditions: in vivo.
Data set [7] has as its target T2, Cytochrome P450 3A4 (Homo sapiens, UniProt P08684). Nature of the data set: Inhibition of recombinant CYP3A4. Type of data set: ADME.
Data set [8] deals with Cytochrome P450 2D6 (Homo sapiens, UniProt P10635). Kind of data set: Inhibition of recombinant CYP2D6. Type of data set: ADME.
In data set [9] the target is T2, Cytochrome P450 3A4. Nature of the data set: Inhibition of CYP3A4 in human liver microsomes. In kind it is ADME, Microsome. On the technique in general: Liver microsomes are a subcellular fraction often used to study metabolism.
For data set [10], the system named is Rattus norvegicus. Kind of data set: Inhibition of icilin-induced wet dog shakes behavior in po dosed rat administered 60 mins prior to icilin challenge. In kind it is functional.
The nature of data set [11]: Metabolic stability in human liver microsomes assessed as compound remaining after 10 mins. Conditions: read-out: Stability. In kind it is ADME, Microsome.
Data set [12] deals with Transient receptor potential M8 protein (Canis lupus familiaris, UniProt Q1A7N1). Nature of the data set: Antagonist activity at dog TRPM8 expressed in HEK293 cells assessed as inhibition of icilin-induced calcium flux by FLIPR assay. In kind it is functional, cell-based.
Data set [13] is described as follows: Cmax in rat at 10 mg/kg. Type of data set: ADME, organism-based. Set-up: dose 10 mg/kg. Conditions: in vivo.
The test system of data set [14] is Rattus norvegicus. Nature of the data set: Antiallodynic activity against chronic constriction injury cold allodynia in rat assessed as inhibition of cold hypersensitivity at 30 mg/kg, po measured after 2 to 3 hrs post dosing. In kind it is functional.
The nature of data set [15]: Volume of distribution at steady state in rat at 10 mg/kg. In kind it is ADME, organism-based. Set-up: dose 10 mg/kg. Conditions: in vivo, read-out: Vdss.
Data set [16] deals with Rattus norvegicus. Kind of data set: Antiallodynic activity against chronic constriction injury cold allodynia in rat assessed as inhibition of cold hypersensitivity at 10 mg/kg, po measured after 2 to 3 hrs post dosing. Type of data set: functional.
Data set [17] concerns Liver microsomes. Nature of the data set: Metabolic stability in human liver microsomes assessed as CYP3A4-mediated glutathione adduct formation by glutathione conjugation assay. In kind it is ADME, Microsome.
Data set [18] is described as follows: Half life in rat at 10 mg/kg. In kind it is ADME, organism-based. Details: dose 10 mg/kg. The conditions noted are these: in vivo.
The nature of data set [19]: Metabolic stability in rat liver microsomes assessed as compound remaining after 10 mins. In kind it is ADME, Microsome. The conditions noted are these: read-out: Stability.
The target in data set [20] is T1, Cytochrome P450 2C19. Kind of data set: Inhibition of recombinant CYP2C19. In kind it is ADME.
For data set [21], the target named is T3, Cytochrome P450 1A2 (Homo sapiens, UniProt P05177).
T3 sequence (P05177 whole entry): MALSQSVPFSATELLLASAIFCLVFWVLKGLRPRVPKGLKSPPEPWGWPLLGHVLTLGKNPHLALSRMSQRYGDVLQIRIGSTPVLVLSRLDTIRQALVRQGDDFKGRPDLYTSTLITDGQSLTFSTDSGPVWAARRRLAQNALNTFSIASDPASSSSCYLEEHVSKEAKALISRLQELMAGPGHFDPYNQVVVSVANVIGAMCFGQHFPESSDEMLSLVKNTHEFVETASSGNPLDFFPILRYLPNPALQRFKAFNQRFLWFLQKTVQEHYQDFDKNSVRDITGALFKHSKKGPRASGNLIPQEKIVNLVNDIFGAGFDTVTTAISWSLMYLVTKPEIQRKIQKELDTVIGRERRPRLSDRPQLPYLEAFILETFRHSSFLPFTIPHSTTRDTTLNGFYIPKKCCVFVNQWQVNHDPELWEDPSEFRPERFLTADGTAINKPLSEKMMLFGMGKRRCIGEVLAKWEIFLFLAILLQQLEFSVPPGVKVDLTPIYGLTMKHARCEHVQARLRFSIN
Nature of the data set: Inhibition of recombinant CYP1A2. Type of data set: ADME.

A short description of data set [22]: Metabolic stability in dog liver microsomes assessed as compound remaining after 10 mins. Type of data set: ADME, Canis lupus familiaris, Microsome. Conditions: read-out: Stability.
In data set [23] the test system is Rattus norvegicus. Nature of the data set: Antiallodynic activity against chronic constriction injury cold allodynia in rat assessed as inhibition of cold hypersensitivity at 10 mg/kg, po measured after 2 hrs post dosing. In kind it is functional, organism-based. Set-up: dose 10 mg/kg.
A short description of data set [24]: Oral bioavailability in rat at 10 mg/kg. Type of data set: ADME, organism-based. The conditions noted are these: in vivo.
Data set [25] can be described thus: Tmax in rat at 10 mg/kg. Details: dose 10 mg/kg. In kind it is ADME, organism-based. The conditions noted are these: in vivo.
Data set [26] has as its target Transient receptor potential cation channel subfamily M member 8 (Rattus norvegicus, UniProt Q8R455). Nature of the data set: Antagonist activity at rat TRPM8 by calcium flux assay. Type of data set: functional.
In data set [27] the target is Transient receptor potential M8 protein (Canis lupus familiaris) (UniProt Q1A7N1). Kind of data set: Antagonist activity at dog TRPM8 expressed in human HEK293 cells assessed as inhibition of icilin-induced calcium flux at 0.2 uM by FLIPR assay. Type of data set: functional, cell-based.

Results on 21 molecules are retold here after ChEMBL document CHEMBL1955797, “Discovery of vinylcycloalkyl-substituted benzimidazole TRPM8 antagonists effective in the treatment of cold allodynia” (Bioorg Med Chem Lett, 2012).

Calls of active or inactive are those of the source. The calls are words filed in the database; no cut-off is given here. Bounds are passed on as bounds.

Sequence of Transient receptor potential M8 protein (Q1A7N1 whole entry): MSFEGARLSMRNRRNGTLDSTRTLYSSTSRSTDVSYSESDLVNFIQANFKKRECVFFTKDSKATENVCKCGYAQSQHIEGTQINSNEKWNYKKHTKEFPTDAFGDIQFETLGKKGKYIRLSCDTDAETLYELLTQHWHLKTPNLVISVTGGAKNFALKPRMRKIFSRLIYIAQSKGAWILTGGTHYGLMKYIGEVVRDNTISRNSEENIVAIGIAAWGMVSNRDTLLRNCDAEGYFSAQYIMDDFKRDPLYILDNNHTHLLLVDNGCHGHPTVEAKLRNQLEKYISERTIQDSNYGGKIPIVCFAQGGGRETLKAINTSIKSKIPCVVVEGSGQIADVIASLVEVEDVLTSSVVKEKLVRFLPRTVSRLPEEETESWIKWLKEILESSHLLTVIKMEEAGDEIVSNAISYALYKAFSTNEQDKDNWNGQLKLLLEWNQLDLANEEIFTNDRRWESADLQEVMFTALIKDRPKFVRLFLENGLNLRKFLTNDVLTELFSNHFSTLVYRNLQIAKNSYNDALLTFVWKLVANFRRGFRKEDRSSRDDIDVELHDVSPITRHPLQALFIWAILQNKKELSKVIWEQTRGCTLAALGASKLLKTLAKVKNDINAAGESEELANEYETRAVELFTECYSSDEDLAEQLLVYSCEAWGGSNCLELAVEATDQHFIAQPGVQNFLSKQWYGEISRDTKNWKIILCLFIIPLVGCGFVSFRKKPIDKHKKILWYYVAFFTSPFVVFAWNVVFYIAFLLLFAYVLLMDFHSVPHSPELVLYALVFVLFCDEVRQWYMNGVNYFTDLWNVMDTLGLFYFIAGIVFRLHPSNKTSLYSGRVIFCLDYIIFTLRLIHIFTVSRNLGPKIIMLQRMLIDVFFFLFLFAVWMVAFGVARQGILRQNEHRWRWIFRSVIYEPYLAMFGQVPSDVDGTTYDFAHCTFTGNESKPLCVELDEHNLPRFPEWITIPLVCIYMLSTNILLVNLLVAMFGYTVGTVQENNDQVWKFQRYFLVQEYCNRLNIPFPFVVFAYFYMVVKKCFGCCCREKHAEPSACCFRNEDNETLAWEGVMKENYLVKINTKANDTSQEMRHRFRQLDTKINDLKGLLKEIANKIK
Sequence of Transient receptor potential M8 protein (Canis lupus familiaris) (Q1A7N1 1-1104): as the sequence (Q1A7N1 whole entry) above
T1 sequence (P33261 whole entry): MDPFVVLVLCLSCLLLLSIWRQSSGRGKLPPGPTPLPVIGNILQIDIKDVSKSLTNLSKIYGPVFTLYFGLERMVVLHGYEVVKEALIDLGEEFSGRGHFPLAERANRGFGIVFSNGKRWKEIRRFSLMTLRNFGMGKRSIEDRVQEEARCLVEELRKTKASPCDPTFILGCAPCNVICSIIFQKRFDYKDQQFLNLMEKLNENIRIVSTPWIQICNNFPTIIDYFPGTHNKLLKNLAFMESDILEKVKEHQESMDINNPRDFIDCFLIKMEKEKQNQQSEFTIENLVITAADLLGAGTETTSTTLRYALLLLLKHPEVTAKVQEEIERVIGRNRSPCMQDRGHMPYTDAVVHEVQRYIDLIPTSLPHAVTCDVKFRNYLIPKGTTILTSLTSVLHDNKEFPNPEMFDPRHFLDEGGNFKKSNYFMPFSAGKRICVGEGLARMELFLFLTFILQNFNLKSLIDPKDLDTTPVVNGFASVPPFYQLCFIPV
T2 sequence (P08684 whole entry): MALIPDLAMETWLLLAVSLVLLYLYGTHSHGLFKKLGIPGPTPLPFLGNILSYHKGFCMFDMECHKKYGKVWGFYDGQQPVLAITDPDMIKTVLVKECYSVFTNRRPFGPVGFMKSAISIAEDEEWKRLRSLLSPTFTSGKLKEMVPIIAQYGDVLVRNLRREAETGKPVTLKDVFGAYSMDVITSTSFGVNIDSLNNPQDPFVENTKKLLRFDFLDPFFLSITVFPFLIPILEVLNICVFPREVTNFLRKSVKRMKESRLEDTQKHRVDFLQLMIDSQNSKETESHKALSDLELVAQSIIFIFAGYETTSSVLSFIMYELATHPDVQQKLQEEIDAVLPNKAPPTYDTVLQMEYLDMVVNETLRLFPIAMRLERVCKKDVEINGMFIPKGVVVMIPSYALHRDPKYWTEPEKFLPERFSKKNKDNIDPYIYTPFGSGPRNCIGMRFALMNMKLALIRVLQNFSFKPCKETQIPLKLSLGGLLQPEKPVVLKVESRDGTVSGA
Sequence of Transient receptor potential cation channel subfamily M member 8 (Rattus norvegicus, UniProt Q8R455) (Q8R455 whole entry): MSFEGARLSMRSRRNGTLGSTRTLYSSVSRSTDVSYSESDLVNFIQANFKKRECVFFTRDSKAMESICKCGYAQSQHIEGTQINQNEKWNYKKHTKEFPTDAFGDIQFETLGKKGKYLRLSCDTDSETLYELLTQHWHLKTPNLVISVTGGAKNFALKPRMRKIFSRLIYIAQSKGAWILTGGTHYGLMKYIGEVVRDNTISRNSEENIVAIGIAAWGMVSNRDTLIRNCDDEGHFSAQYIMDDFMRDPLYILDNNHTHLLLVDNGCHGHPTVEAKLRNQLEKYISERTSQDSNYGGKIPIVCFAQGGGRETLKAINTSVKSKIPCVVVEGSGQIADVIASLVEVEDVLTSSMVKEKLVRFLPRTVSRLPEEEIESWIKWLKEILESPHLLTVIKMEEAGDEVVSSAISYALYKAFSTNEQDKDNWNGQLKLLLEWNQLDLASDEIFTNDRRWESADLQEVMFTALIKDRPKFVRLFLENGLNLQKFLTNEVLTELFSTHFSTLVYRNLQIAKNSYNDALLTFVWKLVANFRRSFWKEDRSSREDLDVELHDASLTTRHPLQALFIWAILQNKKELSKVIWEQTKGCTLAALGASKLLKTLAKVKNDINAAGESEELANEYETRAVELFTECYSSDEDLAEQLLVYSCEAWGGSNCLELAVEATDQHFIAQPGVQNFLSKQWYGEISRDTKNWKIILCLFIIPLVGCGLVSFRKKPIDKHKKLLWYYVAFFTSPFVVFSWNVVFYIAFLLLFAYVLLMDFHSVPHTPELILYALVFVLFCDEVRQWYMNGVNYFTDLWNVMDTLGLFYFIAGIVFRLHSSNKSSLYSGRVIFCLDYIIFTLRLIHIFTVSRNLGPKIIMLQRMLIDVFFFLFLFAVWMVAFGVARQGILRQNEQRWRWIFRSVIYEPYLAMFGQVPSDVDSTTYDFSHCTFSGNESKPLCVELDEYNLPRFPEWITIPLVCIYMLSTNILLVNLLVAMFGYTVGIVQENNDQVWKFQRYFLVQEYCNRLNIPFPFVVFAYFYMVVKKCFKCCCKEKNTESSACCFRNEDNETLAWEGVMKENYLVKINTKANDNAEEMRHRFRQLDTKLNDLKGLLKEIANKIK
Sequence of Cytochrome P450 2D6 (P10635 whole entry): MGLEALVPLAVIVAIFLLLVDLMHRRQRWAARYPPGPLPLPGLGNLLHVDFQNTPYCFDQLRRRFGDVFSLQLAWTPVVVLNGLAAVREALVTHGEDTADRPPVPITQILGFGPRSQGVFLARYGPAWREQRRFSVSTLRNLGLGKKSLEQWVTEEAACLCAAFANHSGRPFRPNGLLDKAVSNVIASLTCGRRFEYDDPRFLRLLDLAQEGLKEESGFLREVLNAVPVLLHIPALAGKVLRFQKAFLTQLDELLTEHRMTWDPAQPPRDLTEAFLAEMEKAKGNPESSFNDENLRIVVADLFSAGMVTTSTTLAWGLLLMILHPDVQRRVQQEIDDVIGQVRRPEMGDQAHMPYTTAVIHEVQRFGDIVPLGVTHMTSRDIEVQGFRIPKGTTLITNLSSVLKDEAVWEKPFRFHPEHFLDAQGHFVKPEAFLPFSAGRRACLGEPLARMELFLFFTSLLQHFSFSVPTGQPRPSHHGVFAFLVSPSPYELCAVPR
Sequence of Transient receptor potential cation channel subfamily M member 8 (Homo sapiens, UniProt Q7Z2W7) (Q7Z2W7 whole entry): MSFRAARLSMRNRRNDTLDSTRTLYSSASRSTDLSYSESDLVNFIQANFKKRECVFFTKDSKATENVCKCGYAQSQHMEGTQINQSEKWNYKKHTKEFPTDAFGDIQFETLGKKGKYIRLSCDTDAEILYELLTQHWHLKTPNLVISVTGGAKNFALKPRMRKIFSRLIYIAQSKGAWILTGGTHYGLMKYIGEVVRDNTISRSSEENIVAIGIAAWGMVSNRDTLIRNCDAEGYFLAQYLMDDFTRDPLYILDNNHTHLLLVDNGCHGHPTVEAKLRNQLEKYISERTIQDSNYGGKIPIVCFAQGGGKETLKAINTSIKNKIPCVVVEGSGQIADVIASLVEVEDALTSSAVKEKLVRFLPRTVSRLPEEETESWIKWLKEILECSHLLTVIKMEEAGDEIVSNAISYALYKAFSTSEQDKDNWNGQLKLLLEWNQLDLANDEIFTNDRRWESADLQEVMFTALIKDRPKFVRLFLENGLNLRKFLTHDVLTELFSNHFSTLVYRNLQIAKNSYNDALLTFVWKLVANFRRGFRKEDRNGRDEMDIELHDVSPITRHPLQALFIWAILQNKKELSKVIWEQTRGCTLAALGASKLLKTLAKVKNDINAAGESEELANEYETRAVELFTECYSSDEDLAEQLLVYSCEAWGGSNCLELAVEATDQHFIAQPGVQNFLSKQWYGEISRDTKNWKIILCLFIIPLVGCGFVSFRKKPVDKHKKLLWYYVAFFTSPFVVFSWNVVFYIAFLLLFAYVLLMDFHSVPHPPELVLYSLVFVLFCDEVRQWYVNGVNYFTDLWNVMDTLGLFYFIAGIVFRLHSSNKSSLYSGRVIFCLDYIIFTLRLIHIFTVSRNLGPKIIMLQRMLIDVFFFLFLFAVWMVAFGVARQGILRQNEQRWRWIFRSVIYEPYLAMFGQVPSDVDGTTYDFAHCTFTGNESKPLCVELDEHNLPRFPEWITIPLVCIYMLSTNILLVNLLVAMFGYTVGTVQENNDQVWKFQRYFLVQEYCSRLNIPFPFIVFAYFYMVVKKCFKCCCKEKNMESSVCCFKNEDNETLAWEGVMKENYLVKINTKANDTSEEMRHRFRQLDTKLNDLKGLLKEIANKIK

For the molecule `FC(F)(F)c1ccccc1-c1ccc2[nH]c(/C=C/C3CCCCC3)nc2c1`, the IC50 (in general, the point on the concentration scale where inhibition reaches its midpoint) is 3500 nM in data set [1]; over 30000 nM in data set [3]; 15 nM in [4]; 3500 nM in data set [7]; over 10000 nM in data set [8]; over 30000 nM in [9]. Also, the IC50 in data set [12] is 11 nM; in data set [20], over 10000 nM; in data set [21], over 10000 nM; in data set [26], 20 nM. Besides, the inhibition – broadly, the percentage by which the read-out fell short of the control – at 3.3 µM in [2] was 62%. The outcome in data set [5] and in [23] was Active. For the same molecule, in data set [6], the clearance (as a rule, the rate of elimination divided by the concentration) came out at 22 mL/min/kg. The ED50 (as a rule, the dose at which the effect has come halfway, by size or by number of responders) in data set [10] was determined as 6.4 mg/kg. In data set [10], the inhibition entry was “Dose-dependent effect”. In addition, the remaining at 10 min in [11] came to 85%; in [19], 58%; in data set [22], 20%. In data set [13], the Cmax – broadly, the peak of the concentration-time curve – is 225 ng/mL. Further, in [14], the inhibition in vivo (usually the change of the read-out against control, counted positive when it falls) at 30 mg/kg came to 90%. Besides, the Vd in data set [15] worked out at 9.5 L/kg. Moreover, in data set [16], the inhibition in vivo at 10 mg/kg is 90%. Moreover, the Stability result in data set [17] is listed as “Stable”. Also, the half-life (commonly the time in which the quantity being followed falls by half) in data set [18] was 2.9 h. Further, the bioavailability (in general, the share of a dose that reaches the circulation, judged against a reference dose that is usually intravenous) in data set [24] is 14%. Further, the Tmax (usually the time from dosing to the highest level) in data set [25] came out at 1.6 h.

As for `CC1(/C=C/c2nc3cc(-c4ccccc4C(F)(F)F)ccc3[nH]2)CCC(F)(F)CC1`, the values for the remaining at 10 min in data set [11], in data set [19] and in [22] were 97%, 84% and 28%, respectively. The IC50 in [12] was 8.9 nM.

For the molecule `FC1(F)CCC(/C=C/c2nc3cc(-c4ccccc4C(F)(F)F)ccc3[nH]2)CC1`, the remaining at 10 min in data set [11] worked out at 47%; in [19] it was 100%; in data set [22], 39%. In addition, in data set [12], the IC50 turned out to be 21 nM.

As for `FC(F)(F)Oc1ccccc1-c1ccc2[nH]c(/C=C/C3CCCCC3)nc2c1`, the remaining at 10 min in [11] is 71%; in [19] it was 91%.

Consider `Clc1ccccc1-c1ccc2[nH]c(/C=C/C3CCCCC3)nc2c1`, for which the remaining at 10 min in data set [11] was determined as 71%; in data set [19], 39%. Moreover, in data set [12], the IC50 is 8.9 nM.

Regarding `FC(F)(F)c1cccnc1-c1ccc2[nH]c(/C=C/C3CCCCC3)nc2c1`, the remaining at 10 min in data set [11] came to 90%; in data set [19], 72%; in data set [22], 42%. For the same molecule, in data set [12], the IC50 amounted to 38 nM.

For `FC(F)(F)c1cccc(C(F)(F)F)c1-c1ccc2[nH]c(/C=C/C3CCCCC3)nc2c1`, the remaining at 10 min in data set [11] was 56%; in data set [19], 44%; in data set [22] it was 61%. In addition, the IC50 in data set [12] was 12.3 nM.

As for `FC(F)(F)c1ccccc1-c1ccc2[nH]c(/C=C/C3CCOCC3)nc2c1`, the remaining at 10 min in [11] came out at 93%; in data set [19], 79%; in data set [22] it was 51%. Besides, the IC50 in data set [12] was determined as 7.1 nM.

In the case of `Cc1ccccc1-c1ccc2[nH]c(/C=C/C3CCCCC3)nc2c1`, the remaining at 10 min was 77% in data set [11], 15% in [19] and 13% in [22]. Besides, the IC50 in data set [12] worked out at 7.1 nM.

For the molecule `O=S1(=O)CCC(/C=C/c2nc3cc(-c4ccccc4C(F)(F)F)ccc3[nH]2)CC1`, the inhibition in [27] amounted to 63%. Besides, the remaining at 10 min in [11] is 91%; in data set [19], 74%; in data set [22], 60%.

As to `FC(F)(F)c1ccccc1-c1ccc2[nH]c(/C=C/C3CCSCC3)nc2c1`, the figures for the remaining at 10 min in data set [11], in data set [19] and in data set [22] were 67%, 6% and 8%, respectively.

For `CS(=O)(=O)N1CCC(/C=C/c2nc3cc(-c4ccccc4C(F)(F)F)ccc3[nH]2)CC1`, the inhibition in [27] stood at 14%. Further, the remaining at 10 min in [22] was 75%.

`FC(F)(F)Oc1ccccc1-c1ccc2[nH]c(/C=C/C3CCCC3)nc2c1`: the remaining at 10 min amounted to 84% in data set [11] and 71% in data set [19]. In addition, in [12], the IC50 came to 110 nM.

Take `CC1(/C=C/c2nc3cc(-c4ccccc4C(F)(F)F)ccc3[nH]2)CCOCC1`: the remaining at 10 min worked out at 62% in data set [11], 20% in [19] and 35% in [22]. Besides, the IC50 in data set [12] was found to be 8.9 nM.

As to `C(=C\C1CCCCC1)/c1nc2cc(-c3ccccc3)ccc2[nH]1`, in [12], the 50% inhibitory concentration (IC50) was determined as 110 nM.

Regarding `CN1CCC(/C=C/c2nc3cc(-c4ccccc4C(F)(F)F)ccc3[nH]2)CC1`, in data set [27], the inhibition worked out at 1%.

Turning to `Fc1cccc(C(F)(F)F)c1-c1ccc2[nH]c(/C=C/C3CCCCC3)nc2c1`, the remaining at 10 min in data set [11] turned out to be 67%; in data set [19] it was 66%; in data set [22], 42%. Further, in data set [12], the IC50 is 8.6 nM.

As to `FC(F)(F)c1ccccc1-c1ccc2[nH]c(/C=C/C3CCNCC3)nc2c1`, the inhibition in [27] stood at 16%. For the same molecule, the figures for the remaining at 10 min in data set [11], in [19] and in data set [22] were 99%, 86% and 98%, respectively.

As for `Fc1ccccc1-c1ccc2[nH]c(/C=C/C3CCCCC3)nc2c1`, the remaining at 10 min is 98% in data set [11], 34% in data set [19] and 75% in data set [22]. For the same molecule, the IC50 in data set [12] was found to be 21 nM.

On to `COc1ccccc1-c1ccc2[nH]c(/C=C/C3CCCCC3)nc2c1`, for which the remaining at 10 min was found to be 62% in data set [11] and 10% in [19]. Moreover, the IC50 in data set [12] was determined as 8.9 nM.

For the molecule `CC(=O)N1CCC(/C=C/c2nc3cc(-c4ccccc4C(F)(F)F)ccc3[nH]2)CC1`, the inhibition in data set [27] came out at 1%. Besides, the remaining at 10 min in data set [11] came out at 100%; in [19], 85%; in data set [22] it was 100%.
